Like-named read-outs stand apart in the source and are kept apart here.
Experiments:
[1] = test system: athymic nu/nu NMRI mice with BxPC-3 tumors; assay: BxPC-3-bearing tolerability study; type: in vivo, mouse; details: twice weekly 3 mg/kg, five injections, BxPC-3-bearing NMRI mice
Source text: A larger study was run in 50 athymic nu/nu NMRI mice (10 animals per group) inoculated with BxPC-3 pancreatic cancer cells since the study had been intended as a therapeutic efficacy trial (see section 2.9). Similarly solubilized SS66C derivatives were now included. In this study, the tumor growth rates in all animals were much lower than in any previous or subsequent trials (Figure S16c), so we could only extract data about drug tolerability, not antitumor efficacy. Still, the study confirmed that the solubilized P-SS60-, Me-SS66C-, and P-SS66C- prodrugs of -CBI-TMI, and the corresponding carbamate hydrolysis control P-CC60-CBI-TMI, were tolerated with twice weekly injections at 3 mg/kg, over a course of five injections, in all animals, since no distinct differences of body weight or animal health were seen as compared to the vehicle control (Figure S16a).
a Body weights b Body weights
$ Absolute Tumour Volumes d Absolute Tumour Volumes
Irinotecan Irinotecan Irinotecan Irinotecan
(a,b) Bodyweights (means);
confidence interval). […] Dotted vertical lines indicate days

mouse = assay: Tolerability for repeated dose administration in vivo (summary); details: for remarks: repeated dose administration; for well-tolerated dose: weekly or twice-weekly administration
A549 cells = assay: Resazurin cytotoxicity assay, A549, 72 h; details: read-out: IC50(nM): A549
Description: (§1) We used A549 lung cancer and HeLa cervical cancer cell lines for initial screening of the prodrugs.
Fi gure S9: Cell ular resazurin-based cytotoxi ci ty as s a y.
Dose -response curves were calculated from at least 27 incremental single concentrations over a range
of at least three log units. Individual experiments with annotated experiment numbers are shown for each prodrug

HeLa-HRE cells = assay: Resazurin cytotoxicity assay, HeLa-HRE, 48 h; details: for IC50(HeLa)/IC50(A549): ratio HeLa vs A549
Description: as §1
HeLa-HRE cells were treated with prodrugs of the
Dose -response curves were calculated from at least 27 incremental single concentrations over a
range of at least three log units.

MEF TrxR1-ko cells = assay: Resazurin cytotoxicity assay, MEF TrxR1 knockout, 72 h; details: MEF TrxR1-ko vs wt (fl/fl)
Source text: A TrxR1 knockout (ko) in mouse embryonic fibroblast (MEF) cells is, however, accessible. We compared its prodrug sensitivity to that of its parental line[49] (wild-type, wt), on the basis that TrxR1-ko should leave most Trx1 in its oxidized state (only a fraction of it can be maintained in the reduced state by alternative reductants such as Grx2),[50] so prodrugs relying on the cytosolic thioredoxin system (Trx1/TrxR1) for most of their bioreductive activation in long-term assays will have lower potency in TrxR1-ko cells.
MEF cells (ko vs. wt) we r e treated with prodrugs of the CBI-TMI and CBI-AZI series for
72 h at concentrations from 10 pm t o 3 0 µM at 27 incremental single concentrations depending on expected
potencies of the constructs. Data from at least 3 individual experiments was combined (no error bars shown for
clarity) for each cell line.

[2] = read-out: IC50(nM): HeLa, HeLa, 48 h

Compound | tolerability [1] | remarks (mouse) | well-tolerated dose (mouse) | IC50 (A549 cells) | IC50 (HeLa-HRE cells; [2]) | fold change of potency wt → ko (MEF TrxR1-ko cells) | IC50(HeLa)/IC50(A549) (HeLa-HRE cells) | IC50 (HeLa-HRE cells; initial screening, A549 and HeLa cell lines) | IC50 (A549 cells; Homo sapiens) | IC50 (HeLa-HRE cells; Homo sapiens, HeLa, 48 h, read-out: IC50(nM): HeLa)
COc1cc2cc(C(=O)N3CC(CCl)c4c3cc(OC(=O)N3CCN(C)C5CSSCC53)c3ccccc43)[nH]c2c(OC)c1OC (mixture of isomers) [Me-SS66C-CBI-TMI] | tolerated | well tolerated | 3 mg/kg | 17 nM | 220 nM | 4 × |  |  |  | 
COc1cc2cc(C(=O)N3CC(CCl)c4c3cc(OC(=O)N3CCN(C)C5CSSCC53)c3ccccc43)[nH]c2c(OC)c1OC (mixture of isomers) [Me-SS66T-CBI-TMI] |  | well tolerated | 3 mg/kg | 5.9 nM | 59 nM | 2 × | 10 |  |  | 
COc1cc2cc(C(=O)N3C[C@@H](CCl)c4c3cc(OC(=O)N(CCC(=O)N3CCN(C)CC3)C3CCCCC3)c3ccccc43)[nH]c2c(OC)c1OC [P-CC60-CBI-TMI] | tolerated | well tolerated | 3 mg/kg | 1700 nM | 1250 nM |  | 0.7 | > 1000 nM |  | 
COc1cc2cc(C(=O)N3C[C@@H](CCl)c4c3cc(OC(=O)N(CCC(=O)N3CCN(C)CC3)[C@H]3CCSSC3)c3ccccc43)[nH]c2c(OC)c1OC [P-SS60-CBI-TMI] | tolerated | well tolerated | 3 mg/kg | 180 nM | 420 nM |  | 2.3 |  |  | 
COc1cc2cc(C(=O)N3C[C@@H](CCl)c4c3cc(OC(=O)N3CCN(C(=O)CCC(=O)N5CCN(C)CC5)[C@H]5CSSC[C@H]53)c3ccccc43)[nH]c2c(OC)c1OC [P-SS66C-CBI-TMI] | tolerated | well tolerated | 3 mg/kg |  |  | 3 × | 17 |  | 12 nM | 200 nM

From article PMC10141580, “Cyclic Dichalcogenides Extend the Reach of Bioreductive Prodrugs to Harness Thiol/Disulfide Oxidoreductases: Applications to seco-Duocarmycins Targeting the Thioredoxin System” (ACS Central Science, 2023)
